Assay results published in patent US20250122225A1, “MASP-2 INHIBITORS AND METHODS OF USE” (Omeros Corporation, priority 2023, published 2025).
Structures can show the parent of a compound that is named as a salt.

Columns and labels:
Format in all cases: biochemical
[1] = test system: Lectin Pathway Activation in human serum; assay: Lectin Pathway Activation (LPA) assay in human serum, mannan-coated ELISA plate, C4c detection; details: 1% human serum, read-out: LPA Functional Activity (IC50)
Description: Lectin Pathway Activation (LPA) Assay in Human Serum Treated with Compounds
A microtiter ELISA plate was coated with mannan (1 mg/ml) from Saccharomyces cerevisiae (Sigma-Aldrich®, M7504) overnight at 4° C. in coating buffer [33.3 mM Na2CO3, 166.67 mM NaHCO3]. The plate was blocked with 5% bovine serum albumin (BSA) (Sigma-Aldrich®, A3294) in 1×PBST [Phosphate Buffered Saline Solution (1.06 mM KH2PO4, 155.2 mM NaCl, 2.97 mM Na2HPO4^−·7H2O, pH 7.4), 0.05% Tween-20] shaking for 2 hours at room temperature. 1% human serum was incubated with serial dilutions of small compounds in 1× LPA+ Buffer [20 mM Hepes, pH 7.4, 140 mM NaCl, 2 mM MgCl2 (6H2O)] and incubated for 5 minutes at room temperature. 40 μL of this mixture was then added to the plate, and the plate was incubated at room temperature for 55 mins. Next, the reaction was stopped by adding 20 μL of EDTA Stop Solution [20 mM Hepes, pH7.4, 140 mM NaCl, 150 mM EDTA] to the plate. The plate was then washed 10× in wash buffer 1×PBST; 40 μL of Rabbit Anti Human C4c Antibody [Dako®, Q0369] diluted 1:20000 in wash buffer was added; and the plate was incubated shaking at room temperature for 30 minutes. The plate was washed [5× times]; 40 μL of Goat Anti-rabbit Antibody-HRP Conjugate [Southern Biotech®, 4050-05] diluted 1:10000 in wash buffer was added; and the plate was incubated shaking at room temperature for 30 minutes. After that, the plate was washed five times; 40 µL/well of Amplex® UltraRed Substrate Solution [1× LPA Buffer, 10 mM Amplex® UltraRed Stock Solution [Thermo Fisher Sci.®, A36006], 3% stabilized hydrogen peroxide [Sigma Aldrich®, 216763] was added; the plate was incubated at room temperature for 16 minutes; the reaction was stopped by adding 8 µL/well of Amplex® UltraRed Stop Solution [Thermo Fisher Sci.®, A33855] in 100% EtOH. Finally, the plate was read for fluorescence at Ex: 550 nm, Em: 580 nm on the i3x Microplate Reader.

human α-thrombin = biological target: T1, human α-thrombin (Homo sapiens, UniProt P00734); assay: Enzymatic assay for thrombin (fluorogenic peptide substrate Boc-VPR-AMC)
T1 construct: enzyme (human α-thrombin (BioPharm® Lab.)) in assay buffer; purchased BioPharm® Lab
How it was run: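 Assay conditions kept the reaction linear in time, enzyme and substrate, so IC50 approximated Ki apart from tight- or slow-binding cases. Boc-VPR-AMC cleavage by human α-thrombin proceeded 20 min at room temperature in Hepes pH 7.4/NaCl/Tween 20 buffer, then was acid-quenched and read by fluorescence.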

MASP-2 (CCP1-CCP2-SP) = biological target: T2, MASP-2 (CCP1-CCP2-SP) (Homo sapiens, UniProt O00187); assay: Enzymatic assay for MASP-2 inhibitory activity (fluorogenic substrate)
T2 construct: 15 μL of Enzyme MASP-2 (CCP1-CCP2-SP) in Assay Buffer
How it was run: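 Fluorescence was normalized between no-enzyme and DMSO-only controls to derive % activity, with IC50 taken as equivalent to Ki except for tight-binding inhibitors. Reactions ran 20 min at room temperature in HEPES pH 7.4/NaCl/Tween 20 buffer, using the C2-derived fluorogenic substrate, before acetic acid stop.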

T2 sequence (O00187 445-686 limits assumed): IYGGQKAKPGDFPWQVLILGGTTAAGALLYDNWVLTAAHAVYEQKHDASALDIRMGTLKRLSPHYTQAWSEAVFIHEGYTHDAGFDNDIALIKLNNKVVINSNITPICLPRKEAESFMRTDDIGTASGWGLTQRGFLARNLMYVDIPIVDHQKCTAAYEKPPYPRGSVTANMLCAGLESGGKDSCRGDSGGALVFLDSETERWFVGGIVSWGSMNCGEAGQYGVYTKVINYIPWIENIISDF
T2 sequence (O00187 287-444 partner limits assumed): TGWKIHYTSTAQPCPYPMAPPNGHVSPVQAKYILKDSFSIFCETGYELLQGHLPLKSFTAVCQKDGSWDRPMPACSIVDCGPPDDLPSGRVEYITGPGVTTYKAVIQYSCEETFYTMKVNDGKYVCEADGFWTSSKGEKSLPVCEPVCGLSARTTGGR

SMILES	IC50 [1]	Ki (human α-thrombin)	Ki (MASP-2 (CCP1-CCP2-SP))
Cc1ccc(CNc2nc(Cl)c3n(c2=O)[C@H](C(=O)NCc2ccc(N)nc2C)CC3)cc1C [Compound 27, (S)-N-((6-amino-2-methylpyridin-3-yl)methyl)-1-chloro-3-((3,4-dimethylbenzyl)amino)-4-oxo-4,6,7,8-tetrahydropyrrolo[1,2-a]pyrazine-6-carboxamide trifluoroacetate]	< 50 nM	2500 to 10000 nM	< 500 nM
Cc1cc(C)cc(CNc2ncc3n(c2=O)[C@H](C(=O)NCc2cc4cnccc4n2C)CC3)c1 [Compound 41, (S)-3-((3,5-dimethylbenzyl)amino)-N-((1-methyl-1H-pyrrolo[3,2-c]pyridin-2-yl)methyl)-4-oxo-4,6,7,8-tetrahydropyrrolo[1,2-a]pyrazine-6-carboxamide trifluoroacetate]	< 50 nM	500 to 2500 nM	< 500 nM
COc1cc(C)cc(CNc2ncc3n(c2=O)[C@H](C(=O)NCc2cc4cnccc4[nH]2)CC3)c1 [Compound 48, (S)-N-((1H-pyrrolo[3,2-c]pyridin-2-yl)methyl)-3-((3-methoxy-5-methylbenzyl)amino)-4-oxo-4,6,7,8-tetrahydropyrrolo[1,2-a]pyrazine-6-carboxamide]	< 50 nM	< 500 nM	< 500 nM
Cc1cc(F)cc(CNc2ncc3n(c2=O)[C@H](C(=O)NCc2cc4cnc(C)cc4[nH]2)CC3)c1 [Compound 71, (S)-3-((3-fluoro-5-methylbenzyl)amino)-N-((6-methyl-1H-pyrrolo[3,2-c]pyridin-2-yl)methyl)-4-oxo-4,6,7,8-tetrahydropyrrolo[1,2-a]pyrazine-6-carboxamide]	< 50 nM	10000 to 25000 nM	< 500 nM
Cc1cc(C)cc([C@@H](CO)Nc2ncc3n(c2=O)[C@H](C(=O)NCc2cc4cnccc4[nH]2)CC3)c1 [Compound 75, (S)-N-((1H-pyrrolo[3,2-c]pyridin-2-yl)methyl)-3-(((S)-1-(3,5-dimethylphenyl)-2-hydroxyethyl)amino)-4-oxo-4,6,7,8-tetrahydropyrrolo[1,2-a]pyrazine-6-carboxamide]	< 50 nM	< 500 nM	< 500 nM
Cc1ccc(F)c(CNc2ncc3n(c2=O)[C@H](C(=O)NCc2cc4cnccc4[nH]2)CC3)c1 [Compound 78, (S)-N-((1H-pyrrolo[3,2-c]pyridin-2-yl)methyl)-3-((2-fluoro-5-methylbenzyl)amino)-4-oxo-4,6,7,8-tetrahydropyrrolo[1,2-a]pyrazine-6-carboxamide]	< 50 nM	< 500 nM	< 500 nM
Cc1cc(C)cc(CNc2ncc3n(c2=O)[C@H](C(=O)NCc2ccnc(N)c2)CC3)c1 [Compound 88, (S)-N-((2-aminopyridin-4-yl)methyl)-3-((3,5-dimethylbenzyl)amino)-4-oxo-4,6,7,8-tetrahydropyrrolo[1,2-a]pyrazine-6-carboxamide]	50 to 500 nM	< 500 nM	< 500 nM
O=C(NCc1cc2cnccc2[nH]1)[C@@H]1CCc2c(C3=CCOCC3)nc(NCc3ccccc3)c(=O)n21 [Compound 120, (S)—N-((1H-pyrrolo[3,2-c]pyridin-2-yl)methyl)-3-(benzylamino)-1-(3,6-dihydro-2H-pyran-4-yl)-4-oxo-4,6,7,8-tetrahydropyrrolo[1,2-a]pyrazine-6-carboxamide]	< 50 nM	> 25000 nM	< 500 nM
Cc1cc(F)cc(CNc2ncc3n(c2=O)[C@H](C(=O)NCc2ccc(CN)cc2)CC3)c1 [Compound 181, (S)—N-(4-(aminomethyl)benzyl)-3-((3-fluoro-5-methylbenzyl)amino)-4-oxo-4,6,7,8-tetrahydropyrrolo[1,2-a]pyrazine-6-carboxamide trifluoroacetate]	50 to 500 nM	2500 to 10000 nM	< 500 nM
COc1cc(C)cc(CNc2ncc3n(c2=O)[C@H](C(=O)N[C@H](C)c2ccc(N)nc2)CC3)c1 [Compound 194, (S)-N-((R)-1-(6-aminopyridin-3-yl)ethyl)-3-((3-methoxy-5-methylbenzyl)amino)-4-oxo-4,6,7,8-tetrahydropyrrolo[1,2-a]pyrazine-6-carboxamide trifluoroacetate]	< 50 nM	2500 to 10000 nM	< 500 nM
Cc1ccc(C(F)(F)F)cc1CNc1ncc2n(c1=O)[C@H](C(=O)N[C@H](C)c1ccc(N)nc1)CC2 [Compound 197, (S)-N-((R)-1-(6-aminopyridin-3-yl)ethyl)-3-((2-methyl-5-(trifluoromethyl)benzyl)amino)-4-oxo-4,6,7,8-tetrahydropyrrolo[1,2-a]pyrazine-6-carboxamide trifluoroacetate]	< 50 nM	> 25000 nM	< 500 nM
Cc1nc(N)ccc1CNC(=O)[C@@H]1CCc2c(Cl)nc(NCc3cccc(-c4ccccc4)c3)c(=O)n21 [Compound 221, (S)-3-(([1,1′-biphenyl]-3-ylmethyl)amino)-N-((6-amino-2-methylpyridin-3-yl)methyl)-1-chloro-4-oxo-4,6,7,8-tetrahydropyrrolo[1,2-a]pyrazine-6-carboxamide trifluoroacetate]	< 50 nM	2500 to 10000 nM	< 500 nM

Other lines, results leading:

IC50 [1]	Ki (human α-thrombin)	Ki (MASP-2 (CCP1-CCP2-SP))	SMILES
< 50 nM	< 500 nM	< 500 nM	Cc1cc(F)cc(CNc2ncc3n(c2=O)[C@H](C(=O)NCc2ccc(N)nc2C)CC3)c1 [Compound 69, (S)-N-((6-amino-2-methylpyridin-3-yl)methyl)-3-((3-fluoro-5-methylbenzyl)amino)-4-oxo-4,6,7,8-tetrahydropyrrolo[1,2-a]pyrazine-6-carboxamide]
< 50 nM	500 to 2500 nM	< 500 nM	Cc1nc(N)ccc1CNC(=O)[C@@H]1CCc2c(Cl)nc(NCc3ccccc3)c(=O)n21 [Compound 131, (S)-N-((6-amino-2-methylpyridin-3-yl)methyl)-3-(benzylamino)-1-chloro-4-oxo-4,6,7,8-tetrahydropyrrolo[1,2-a]pyrazine-6-carboxamide]
< 50 nM	< 500 nM	< 500 nM	Cc1nc(N)ccc1CNC(=O)[C@@H]1C[C@H](Cc2ccccc2)c2cnc(NC3CCC3)c(=O)n21 [Compound 140, (6S,8S)-N-((6-amino-2-methylpyridin-3-yl)methyl)-8-benzyl-3-(cyclobutylamino)-4-oxo-4,6,7,8-tetrahydropyrrolo[1,2-a]pyrazine-6-carboxamide]
< 50 nM	< 500 nM	< 500 nM	CC[C@H]1C[C@@H](C(=O)NCc2cc3cnccc3[nH]2)n2c1cnc(NCc1cc(C)cc(C)c1)c2=O [Compound 155, (6S,8S)-N-((1H-pyrrolo[3,2-c]pyridin-2-yl)methyl)-3-((3,5-dimethylbenzyl)amino)-8-ethyl-4-oxo-4,6,7,8-tetrahydropyrrolo[1,2-a]pyrazine-6-carboxamide]
50 to 500 nM	< 500 nM	< 500 nM	Cc1cc(F)cc(CNc2ncc3n(c2=O)[C@H](C(=O)NCc2cnc(N)c(C)c2)CC3)c1 [Compound 213, (S)—N-((6-amino-5-methylpyridin-3-yl)methyl)-3-((3-fluoro-5-methylbenzyl)amino)-4-oxo-4,6,7,8-tetrahydropyrrolo[1,2-a]pyrazine-6-carboxamide trifluoroacetate]
